Measurements from patent publication US20210038681A1, “PHARMACEUTICAL COMPOSITION FOR TREATING VIRAL HEPATITIS C” (priority 2018, published 2021).
Where two headings read alike, the source gives them in different places.

Assays:
[1] = in vitro; conditions: human, HeLa cells (uninfected; HeLa H1A in the text)
[2] = test system: HCV genotype 6a NS5A replicon cells; assay: Standard 3-day HCV replicon assay; format: cell-based; conditions: Hepatitis C virus, 72 h
[3] = test system: HeLa cells; conditions: HeLa H1A cells, 10,000 nM
[4] = test system: HCV genotype 2a NS5A replicon cells; assay: Standard 3-day HCV replicon assay; format: cell-based; conditions: Hepatitis C virus, 72 h
[5] = test system: HCV 6a NS5A F28S replicon; format: cell-based; conditions: HCV genotype 6a, variant F28S; EC50 relative to WT
Source text: (§1) The susceptibility degrees of WT replicons in the transient assay were similar to the values obtained from a cell assay using the stable HCV replicons.

[6] = test system: HCV 2a NS5A F28S replicon; format: cell-based; conditions: HCV genotype 2a, variant F28S; EC50 relative to WT
Source text: as §1

[7] = test system: HCV 1b L31V + Y93H replicon; format: cell-based; conditions: HCV genotype 1b, variant L31V + Y93H; EC50 relative to WT
Source text: as §1

[8] = test system: HCV 4a NS5A L30H + Y93H replicon; format: cell-based; conditions: HCV genotype 4a, variant L30H + Y93H; EC50 relative to WT
Source text: as §1

[9] = test system: HCV 3a NS5A Y93H replicon cells; format: cell-based; conditions: read-out: Mean EC50 (nM) ±SD; HCV genotype 3a, variant Y93H*; replicon cells from cell passage assay
[10] = in vitro; conditions: dog, MDCK cells (uninfected)
[11] = test system: HCV genotype 4a NS5A replicon cells; assay: Standard 3-day HCV replicon assay; format: cell-based; conditions: Hepatitis C virus, 72 h
[12] = test system: influenza B virus (Flu-B); assay: Virus-cell protection assay; format: cell-based; conditions: cell line MDCK
[13] = test system: HCV 1a Wild-type replicon; assay: microbe, parasite or virus in culture; conditions: Hepatitis C virus, Huh-7, read-out: Mean EC50 (nM) ± SD
[14] = test system: HCV genotype 5a NS5A replicon cells; assay: Standard 3-day HCV replicon assay; format: cell-based; conditions: Hepatitis C virus, 72 h
[15] = test system: HCV genotype 1b replicon cells; assay: Standard 3-day HCV replicon assay; format: cell-based; conditions: Hepatitis C virus, 72 h, 3 days, 5% fetal bovine serum
[16] = test system: HCV 1a WT replicon; assay: microbe, parasite or virus in culture; format: cell-based
Source text: as §1

[17] = test system: HCV 1b Y93H replicon; assay: microbe, parasite or virus in culture; format: cell-based
Source text: as §1

[18] = test system: HCV 4a NS5A Y93H replicon; assay: microbe, parasite or virus in culture; format: cell-based
Source text: as §1

[19] = test system: HCV 1a Y93N replicon; assay: microbe, parasite or virus in culture; format: cell-based
Source text: as §1

[20] = test system: HCV 1a Q30K replicon; assay: microbe, parasite or virus in culture; format: cell-based
Source text: as §1

[21] = test system: HCV 1a Y93C replicon; assay: microbe, parasite or virus in culture; format: cell-based
Source text: as §1

[22] = test system: HCV 4a NS5A WT replicon; assay: microbe, parasite or virus in culture; format: cell-based
Source text: as §1

[23] = test system: HCV 1a Q30R replicon; assay: microbe, parasite or virus in culture; format: cell-based
Source text: as §1

[24] = test system: HCV 1b L31F replicon; assay: microbe, parasite or virus in culture; format: cell-based
Source text: as §1

[25] = test system: HCV 1a M28T replicon; assay: microbe, parasite or virus in culture; format: cell-based
Source text: as §1

[26] = test system: HCV 5a NS5A WT replicon; assay: microbe, parasite or virus in culture; format: cell-based
Source text: as §1

[27] = test system: HCV 1b WT replicon; assay: microbe, parasite or virus in culture; format: cell-based
Source text: as §1

[28] = test system: BVDV, HRV-16, Flu-B; assay: Virus-cell protection assay, all tested viruses; format: cell-based; conditions: Bovine viral diarrhea virus isolates and strains, HRV16, all of BVDV, read-out: EC50 against any of the tested viruses
[29] = Hepatitis C virus, read-out: Mean EC50 (nM) ±SD

`COC(=O)N[C@H](C(=O)N1CCC[C@H]1c1ncc(-c2ccc3cc(-c4ccc5nc([C@@H]6CCCN6C(=O)[C@@H](NC(=O)OC)C(C)C)[nH]c5c4)ccc3c2)[nH]1)C(C)C` [ASC16, Ravidasvir] gave a CC50 [1] of over 3300 nM, an EC50 [2] of 0.25 ng/mL and an EC90 [2] of 0.92 ng/mL. For the same molecule, the EC50 ([2]; read-out: EC50 (nM) Mean ± SD) was 0.3 ± 0.1 nM, the EC90 ([2]; read-out: EC90 (nM) Mean ± SD) was 1.1 ± 0.3 nM and the “cytotoxicity at the highest test concentration” value [3] was “significant cytotoxicity”. For the same molecule, the EC50 [4] was 0.12 ng/mL, the EC90 [4] was 0.38 ng/mL and the EC50 ([4]; read-out: EC50 (nM) Mean ± SD) was 0.14 ± 0.03 nM. The EC90 ([4]; read-out: EC90 (nM) Mean ± SD) was 0.45 ± 0.1 nM, the Fold change [5] was 2,146 and the Fold change [6] was 4,575. The Fold change [7] was 37,231, the Fold change [8] was 57,587 and the EC50 [9] was 1040 nM. It also gave a CC50 [10] of over 5000 nM, an EC50 [11] of 0.04 ng/mL and an EC90 [11] of 0.11 ng/mL. The EC50 ([11]; read-out: EC50 (nM) Mean ± SD) was 0.05 ± 0.01 nM, the EC90 ([11]; read-out: EC90 (nM) Mean ± SD) was 0.13 ± 0.015 nM and the EC50 [12] was over 5000 nM. For the same molecule, the EC50 [13] was 0.03 nM, the EC50 [14] was 0.03 ng/mL and the EC90 [14] was 0.1 ng/mL. The EC50 ([14]; read-out: EC50 (nM) Mean ± SD) was 0.04 ± 0.01 nM, the EC90 ([14]; read-out: EC90 (nM) Mean ± SD) was 0.12 ± 0.02 nM and the EC50 ([15]; read-out: EC50) was 0.015 ng/mL. It also gave an EC50 ([15]; read-out: EC50 (nM) Mean ± SD) of 0.02 ± 0.002 nM, an EC90 ([15]; read-out: EC90) of 0.02 ng/mL and an EC90 ([15]; read-out: EC90 (nM) Mean ± SD) of 0.03 ± 0.004 nM. For the same molecule, the Fold change ([16]; HCV genotype 1a, WT, EC50 relative to WT) was 1, the EC50 [16, 29] was 0.03 ± 0.002 nM and the Fold change ([17]; HCV genotype 1b, variant Y93H, EC50 relative to WT) was 81. It also gave an EC50 [17, 29] of 0.9 ± 0.06 nM, a Fold change ([18]; HCV genotype 4a, variant Y93H, EC50 relative to WT) of 210 and an EC50 [18, 29] of 3.2 ± 0.2 nM. The Fold change ([19]; HCV genotype 1a, variant Y93N, EC50 relative to WT) was 3,876, the EC50 ([19]; Hepatitis C virus, read-out: Mean EC50 (nM) ±SD, HCV genotype 1a, variant Y93N) was over 100 nM and the EC50 ([19]; read-out: Mean EC50 (nM) ±SD, HCV genotype 1a, variant Y93N) was 113 ± 7.3 nM. For the same molecule, the Fold change ([20]; HCV genotype 1a, variant Q30K, EC50 relative to WT) was 2,965, the EC50 [20, 29] was 87 ± 17 nM and the Fold change ([21]; HCV genotype 1a, variant Y93C, EC50 relative to WT) was 169. It also gave an EC50 [21, 29] of 5 ± 0.4 nM, a Fold change ([22]; HCV genotype 4a, WT, EC50 relative to WT) of 1 and an EC50 [22, 29] of 0.02 ± 0.004 nM. It also gave a Fold change ([23]; HCV genotype 1a, variant Q30R, EC50 relative to WT) of 168, an EC50 [23, 29] of 4.9 ± 1.3 nM and a Fold change ([24]; HCV genotype 1b, variant L31F, EC50 relative to WT) of 4.0. For the same molecule, the EC50 [24, 29] was 0.05 ± 0.009 nM, the Fold change ([25]; HCV genotype 1a, variant M28T, EC50 relative to WT) was 189 and the EC50 [25, 29] was 5.5 ± 2.8 nM. The Fold change ([26]; HCV genotype 5a, WT, EC50 relative to WT) was 1, the EC50 [26, 29] was 0.08 ± 0.04 nM and the Fold change ([27]; HCV genotype 1b, WT, EC50 relative to WT) was 1. The EC50 [27, 29] was 0.01 ± 0.003 nM and the EC50 [28] was over 3300 nM.
